This note sets out measurements from patent US8987195B2 (priority 2012, dated 2015).

For series [1] the following is noted: rcm bond.
For series [2], the target named is HCV NS3/4A protease genotype 1b (Hepatitis C virus genotype 1b, UniProt P26663). The series is described as follows: HCV NS3/4A protease time-resolved fluorescence (TRF) assay, Ki against genotype 1b. The class given is biochemical. The conditions noted are these: IC50 [gt-1b] (nM), NS3/4A genotype 1b, enzyme 0.2 nM. The gist of the method: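 First, protease (genotype 1b 0.2 nM, A156T 0.4 nM, genotype 3a 0.025 nM) is preincubated 30 min with inhibitor. Next, 25 nM TRF substrate starts the reaction, run 2.5 h at room temperature. Finally, europium fluorescence is read and Ki calculated from IC50.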

Series [3] deals with HCV genotype 1b replicon. Description: HCV replicon assay, genotype 1b replicon EC50. Format: cell-based, Hepatitis C virus. Particulars: Hepatitis C virus, genotype 1b replicon; read-out: EC50 [gt-1b]. The essentials:
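Assay format: compound titration on stable replicon cells, no G418 during treatment, 24 to 48 hours. Lysates were assayed for replicon RNA (hybridization/protection or TaqMan) or luciferase; EC50 fitted to four parameters against DMSO.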
(In general: A replicon is a self-replicating genome or part of one, used to study replication in cells.)

For series [4] the following is noted: from Boc-(2S)-2-aminonon-8-enoyl-Hyp-(vinylACCA)-OMe?; rcm bond; 15-membered ring; Hoveyda-Grubbs 1st gen; DCM; 9.85 mM; 40.0 °C.

Structures are written as SMILES. Where two headings read alike, the source gives them in different places.

The term IC50 denotes the concentration that inhibits the measured activity by half. One may read the EC50 as the concentration giving half of the maximal effect.

In series [1] (from C=CCCCCC[C@H](NC(=O)OC(C)(C)C)C(=O)N1C[C@@]2(CCc3c(c(C(F)(F)F)nc4ccc(OC)cc34)O2)C[C@H]1C(=O)N[C@]1(C(=O)NS(=O)(=O)C2(COC)CC2)C[C@H]1C=C, Zhan's catalyst, DCE, 2.9 mM, 80.0 °C, 4.0 h), `COCC1(S(=O)(=O)NC(=O)[C@@]23C[C@H]2/C=C\CCCCC[C@H](NC(=O)OC(C)(C)C)C(=O)N2C[C@@]4(CCc5c(c(C(F)(F)F)nc6ccc(OC)cc56)O4)C[C@H]2C(=O)N3)CC1` [Example 49, tert-Butyl ((2R,6S,13AS,14AR,16AS,Z)-9′-methoxy-14a-(((1-(methoxymethyl)cyclopropyl)sulfonyl)carbamoyl)-5,16-dioxo-5′-(trifluoromethyl)-1′,2′,3,5,6,7,8,9,10,11, 13A,14,14A,15,16,16A-hexadecahydro-1H-spiro[cyclopropa[e]pyrrolo[1,2-A][1,4]diazacyclopentadecine-2,3′-pyrano[2,3-c]quinolin]-6-yl)carbamate] came in with a ring closure, yield of all isomers of 33%. In series [2], this compound had an IC50 of 0.014 nM. Besides, in series [3], the EC50 stood at 9.13 nM.
Consider `COc1ccc2nc(C3CC3)c3c(c2c1)CC[C@]1(C[C@H]2C(=O)N[C@]4(C(=O)NS(=O)(=O)C5(C)CC5)C[C@H]4/C=C\CCCCC[C@H](NC(=O)OC(C)(C)C)C(=O)N2C1)O3` [Example 16, tert-Butyl (2R,6S,13aS,14aR,16aS,Z)-5′-cyclopropyl-9′-methoxy-14a-(1-methylcyclopropylsulfonylcarbamoyl)-5,16-dioxo-1′,2′,3,5,6,7,8,9,10,11,13a,14,14a,15,16, 16a-hexadecahydro-1H-spiro[cyclopropa[e]pyrrolo[1,2-a][1,4]diazacyclopentadecine-2,3′-pyrano[2,3-c]quinoline]-6-ylcarbamate], for which the ring closure, yield of all isomers in series [1] (from C=CCCCCC[C@H](NC(=O)OC(C)(C)C)C(=O)N1C[C@@]2(CCc3c(c(C4CC4)nc4ccc(OC)cc34)O2)C[C@H]1C(=O)N[C@]1(C(=O)NS(=O)(=O)C2(C)CC2)C[C@H]1C=C, Zhan's catalyst, DCE, 2.48 mM, 75.0 °C, 4.0 h) turned out to be 82.6%. The half-maximal inhibitory concentration (IC50) in series [2] came out at 0.009 nM. In series [3], the EC50 stood at 0.69 nM.
Turning to `COC(=O)[C@@]12C[C@H]1/C=C\CCCCC[C@H](NC(=O)OC(C)(C)C)C(=O)N1C[C@H](O)C[C@H]1C(=O)N2`, in series [1] (from C=CCCCCC[C@H](NC(=O)OC(C)(C)C)C(=O)N1C[C@H](O)C[C@H]1C(=O)N[C@]1(C(=O)OC)C[C@H]1C=C, Grubbs-Hoveyda 1st generation catalyst, DCM, 9.85 mM, 40.0 °C, 40.0 h), the ring closure, yield of all isomers amounted to 74%. The compound also showed a ring closure, isolated yield in series [4] of 74%.
